Like-named read-outs stand apart in the source and are kept apart here.
Key:
[1] = API particle skeletal (true) density, helium gas pycnometry; format: physicochemical; conditions: mean of four powder samples, ambient about 22° C.
Method: The AccuPyc II 1340 Gas Displacement Pycnometry System (Micromeritics Instrument Corporation, Norcross, Ga.) was used to determine the skeletal density of the micronized acetaminophen powder. The AccuPyc II 1340 instrument determines the volume occupied by powder sample, and with knowledge of the sample mass (determined on a XS105 DualRange (Mettler Toledo, Switzerland)) the skeletal density is calculated; purge cycles function to clear the chamber of residual volatile species and occur prior to the measurement cycles. Helium gas was used as the measurement gas, and the following instrument specifications were used in each powder sample: 10 purges (purge fill pressure 19.5 psig), 10 cycles (cycle fill pressure 19.5 psig), pressure equilibration rate 0.0050 psig/min, 3.5 cm^3 cell volume. Performed at ambient conditions of 22° C. and 52% relative humidity, the density reported here corresponds to the mean value obtained from measurement of four powder samples. The density of micronized acetaminophen powder was determined to be 1.3285 g/cm^3.
(§1) Skeletal density was determined by the same procedure described in Example 31; testing was performed at ambient conditions of 22° C. and 51% relative humidity. The density reported here corresponds to the mean value obtained from measurement of four powder samples; the density of semi-fine acetaminophen powder was determined to be 1.3274 g/cm^3.
as §1, with “22.6°” for “22°”, “53%” for “51%”, “mefenamic acid” for “semi-fine acetaminophen”, “1.2706 g/cm^3” for “1.3274 g/cm^3.”

[2] = API powder bulk density, tapped density tester; format: physicochemical
Method: In order to determine the solid volume fractions under which the mixtures of the micronized acetaminophen powder and NEOBEE® 895 would flow as a suspension, bulk density measurements were taken using the 350 Tapped Density Tester (Agilent Technologies, Santa Clara, Calif.), housed in an acoustic cabinet. The test was performed in accordance with ASTM standard D7481-09 (equivalent to USP Method 1) using a 100 mL graduated cylinder with drop height of 14±2 mm at a rate of 300 drops per minute. The mass of the powder sample was determined on a MS8001S NewClassic MF (Mettler Toledo, Switzerland) resulting in a bulk density of 0.36 g/cm^3 after 6000 taps, measured at 21.9° C. and 40% relative humidity.
Bulk density was determined by the same procedure described in Example 32; testing was performed at 22.1° C. and 45% relative humidity.

[3] = API particle size, static image analysis (Malvern Morphologi G3-ID); format: physicochemical; conditions: dry powder
Method: The micronized acetaminophen particle size distribution was obtained using the Malvern Morphologi G3-ID, which employs static image analysis to determine morphology. Powder samples of 7 mm^3 were obtained using a standard scoop, transferred to the attached dispersion unit (operated with 0.1 bar pressure and 60 second dispersion cycle) and analyzed at 20× magnification.
Particle morphology was determined in the same manner described in Example 33, but at a magnification of 5×.

[4] = Raman microscopy of dosage forms; format: physicochemical
Method: After deposition of the drops onto the film, the crystal structure of the mevastatin-PEG 3350 melt formulations were analyzed with a Raman RXN1 Microprobe (Kaiser Optical Systems, MI). First the spectra of pure mevastatin and PEG 3350 solid dispersions were obtained. Mevastatin and PEG 3350 powders were heated above their melting temperatures, to 152° C. and 60° C., respectively. The melts of pure mevastatin and pure PEG 3350 were solidified at room temperature and then analyzed to obtain the spectra of pure compounds. The spectra of the melt formulation consisting of 15% mevastatin and 85% PEG 3350 were obtained by analyzing the drops of the melt formulation deposited using the dropwise additive manufacturing process.
A Thermo Scientific DRX Raman Microscope equipped with a 532 nm laser is used to analyze the solid state form of the drug present in the melt formulations. First, the spectra of pure crystalline celecoxib and gelucire 44/14 solid dispersion are obtained. Pure celecoxib and pure gelucire 44/14 are analyzed to obtain the spectra of pure compounds. […]
The form of celecoxib in the dosage forms is analyzed with a Raman microscope to investigate the effect of gelucire on crystallization of celecoxib within the deposits.

[5] = 15% naproxen 85% PEG 3350 melt dosage forms

Row | Skeletal (true) density [1] [g/mL] | Bulk density ([2]; after 6000 taps) [g/mL] | Sauter mean diameter [3] [μm] | d90 [3] [μm] | Physical form of the drug in the dosage forms (Raman) ([4]; 15% mevastatin 85% PEG 3350 melt dosage forms) | Physical form of the drug in the dosage forms (Raman) [4, 5] | Physical form of the drug in the dosage forms (X-ray diffraction) [5] | Physical form of the drug in the dosage forms (X-ray diffraction) (15% naproxen 85% Pluronic F38 melt dosage forms) | Bulk density ([2]; after 8000 taps) [g/mL] | SMILES
1 | 1.3285 | 0.36 | 22.05 | 75.29 | – | – | – | – | – | CC(=O)Nc1ccc(O)cc1 [micronized acetaminophen, acetaminophen (paracetamol)]
2 | 1.3274 | – | 47.66 | 208.8 | – | – | – | – | 0.46 | CC(=O)Nc1ccc(O)cc1 [semi-fine acetaminophen, acetaminophen (paracetamol)]

Continued, compound first:

Row | SMILES | Skeletal (true) density [1] [g/mL] | Bulk density ([2]; after 6000 taps) [g/mL] | Sauter mean diameter [3] [μm] | d90 [3] [μm] | Physical form of the drug in the dosage forms (Raman) ([4]; 15% mevastatin 85% PEG 3350 melt dosage forms) | Physical form of the drug in the dosage forms (Raman) [4, 5] | Physical form of the drug in the dosage forms (X-ray diffraction) [5] | Physical form of the drug in the dosage forms (X-ray diffraction) (15% naproxen 85% Pluronic F38 melt dosage forms) | Bulk density ([2]; after 8000 taps) [g/mL]
3 | Cc1cccc(Nc2ccccc2C(=O)O)c1C [mefenamic acid] | 1.2706 | 0.7423 | 88.83 | 400.5 | – | – | – | – | –
4 | CC[C@H](C)C(=O)O[C@H]1CCC=C2C=C[C@H](C)[C@H](CC[C@@H]3C[C@@H](O)CC(=O)O3)[C@H]21 [mevastatin] | – | – | – | – | crystalline | – | – | – | –
5 | COc1ccc2cc([C@H](C)C(=O)O)ccc2c1 [naproxen] | – | – | – | – | – | crystalline | crystalline | crystalline | –
